# In patent US8278345B2, “Inhibitors of glutaminyl cyclase” (Probiodrug AG, priority 2006, dated 2012):
# Molecular target: hQC (Homo sapiens, UniProt Q16769)
# Experiment: Inhibitor assay for glutaminyl cyclase activity (fluorometric, H-Gln-βNA / H-Gln-AMC)
# Assay type: biochemical
# Conditions: compound from preparative synthesis, purified; read-out: IC50 hQC
# Experimental: All measurements were performed with a BioAssay Reader HTS-7000Plus for microplates (Perkin Elmer) at 30° C. QC activity was evaluated fluorometrically using H-Gln-βNA. The samples consisted of 0.2 mM fluorogenic substrate, 0.25 U pyroglutamyl aminopeptidase (Unizyme, Hørsholm, Denmark) in 0.2 M Tris/HCl, pH 8.0 containing 20 mM EDTA and an appropriately diluted aliquot of QC in a final volume of 250 μl. Excitation/emission wavelengths were 320/410 nm. The assay reactions were initiated by addition of glutaminyl cyclase. QC activity was determined from a standard curve of β-naphthylamine under assay conditions. One unit is defined as the amount of QC catalyzing the formation of 1 μmol pGlu-βNA from H-Gln-βNA per minute under the described conditions.
# In a second fluorometric assay, QC activity was determined using H-Gln-AMC as substrate. Reactions were carried out at 30° C. utilizing the NOVOStar reader for microplates (BMG labtechnologies). The samples consisted of varying concentrations of the fluorogenic substrate, 0.1 U pyroglutamyl aminopeptidase (Qiagen) in 0.05 M Tris/HCl, pH 8.0 containing 5 mM EDTA and an appropriately diluted aliquot of QC in a final volume of 250 μl. Excitation/emission wavelengths were 380/460 nm. The assay reactions were initiated by addition of glutaminyl cyclase. QC activity was determined from a standard curve of 7-amino-4-methylcoumarin under assay conditions. The kinetic data were evaluated using GraFit sofware.
# For inhibitor testing, the sample composition was the same as described above, except of the putative inhibitory compound added. For a rapid test of QC-inhibition, samples contained 4 mM of the respective inhibitor and a substrate concentration at 1 KM. For detailed investigations of the inhibition and determination of Ki-values, influence of the inhibitor on the auxiliary enzymes was investigated first. In every case, there was no influence on either enzyme detected, thus enabling the reliable determination of the QC inhibition. The inhibitory constant was evaluated by fitting the set of progress curves to the general equation for competitive inhibition using GraFit software.
# hQC, sequence (Q16769 29-361): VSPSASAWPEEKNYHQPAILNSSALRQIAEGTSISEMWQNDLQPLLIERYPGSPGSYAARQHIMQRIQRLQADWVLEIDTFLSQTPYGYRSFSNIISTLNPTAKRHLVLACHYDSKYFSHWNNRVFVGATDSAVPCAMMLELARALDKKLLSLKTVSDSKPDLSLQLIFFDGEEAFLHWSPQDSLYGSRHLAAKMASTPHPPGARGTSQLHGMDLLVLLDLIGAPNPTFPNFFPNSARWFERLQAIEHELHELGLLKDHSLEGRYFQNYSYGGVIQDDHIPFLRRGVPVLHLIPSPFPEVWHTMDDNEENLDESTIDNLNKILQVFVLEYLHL
row,IC50,Structure (SMILES)
1,0.266 µM,"Cc1ccc(C2C(c3c[nH]c4ccccc34)=C(O)C(=O)N2CCCn2ccnc2)cc1 (centres unmarked) [Compound 114, 3-Hydroxy-1-(3-imidazol-1-yl-propyl)-4-(1H-indol-3-yl)-5-p-tolyl-1,5-dihydro-pyrrol-2-one]"
2,0.0133 µM,"O=C(C1=C(O)C(=O)N(c2ccc3[nH]cnc3c2)C1c1ccc(Cl)c(Cl)c1)C1CCCCC1 (centres unmarked) [Compound 372, 1-(1H-Benzoimidazol-5-yl)-4-cyclohexanecarbonyl-5-(3,4-dichloro-phenyl)-3-hydroxy-1,5-dihydro-pyrrol-2-one]"

# Same assay, conditions: read-out: IC50
row,Structure (SMILES),IC50
1,"O=C1C(O)=C(c2ccccc2)C(c2c(F)ccc(Cl)c2F)N1c1ccc2[nH]cnc2c1 (centres unmarked) [Compound 339, 1-(1H-Benzoimidazol-5-yl)-5-(3-chloro-2,6-difluoro-phenyl)-3-hydroxy-4-phenyl-1,5-dihydro-pyrrol-2-one]",0.58 µM
2,"CC1=C(O)C(=O)N(c2ccc3[nH]cnc3c2)C1c1ccnc2ccccc12 (centres unmarked) [Compound 270, 1-(1H-Benzoimidazol-5-yl)-3-hydroxy-4-methyl-5-quinolin-4-yl-1,5-dihydro-pyrrol-2-one]",1.48 µM
3,"CC1=C(O)C(=O)N(c2ccc3[nH]cnc3c2)C1c1coc2ccc(C)cc2c1=O (centres unmarked) [Compound 328, 1-(1H-Benzoimidazol-5-yl)-3-hydroxy-4-methyl-5-(6-methyl-4-oxo-4H-chromen-3-yl)-1,5-dihydro-pyrrol-2-one]",0.31 µM
4,"CC(C)C1=C(O)C(=O)N(CCCn2ccnc2)C1/C=C/c1ccccc1 (centres unmarked) [Compound 64, 3-Hydroxy-1-(3-imidazol-1-yl-propyl)-4-isopropyl-5-(styryl)-1,5-dihydro-pyrrol-2-one]",3.1 µM
5,"Cc1cc(C2C(c3ccccc3)=C(O)C(=O)N2c2ccc3[nH]cnc3c2)oc1C (centres unmarked) [Compound 395, 1-(1H-Benzoimidazol-5-yl)-5-(4,5-dimethyl-furan-2-yl)-3-hydroxy-4-phenyl-1,5-dihydro-pyrrol-2-one]",1.39 µM
6,"CCCCCC1=C(O)C(=O)N(c2ccc3[nH]cnc3c2)C1c1ccco1 (centres unmarked) [Compound 456, 1-(1H-Benzoimidazol-5-yl)-5-furan-2-yl-3-hydroxy-4-pentyl-1,5-dihydro-pyrrol-2-one]",4.63 µM
7,"CCCCCC1=C(O)C(=O)N(CCCn2ccnc2)C1C (centres unmarked) [Compound 197, 3-Hydroxy-1-(3-imidazol-1-yl-propyl)-5-methyl-4-pentyl-1,5-dihydro-pyrrol-2-one]",0.04 µM
8,"O=C1C(O)=C(c2ccc(O)cc2)C(c2cccc(F)c2)N1c1ccc2[nH]cnc2c1 (centres unmarked) [Compound 363, 1-(1H-Benzoimidazol-5-yl)-5-(3-fluoro-phenyl)-3-hydroxy-4-(4-hydroxy-phenyl)-1,5-dihydro-pyrrol-2-one]",0.67 µM
9,"CC1=C(O)C(=O)N(c2ccc3[nH]cnc3c2)C1c1coc2ccccc2c1=O (centres unmarked) [Compound 356, 1-(1H-Benzoimidazol-5-yl)-3-hydroxy-4-methyl-5-(4-oxo-4H-chromen-3-yl)-1,5-dihydro-pyrrol-2-one]",3.91 µM
10,"CC(C)C1=C(O)C(=O)N(CCCn2ccnc2)C1c1ccccc1 (centres unmarked) [Compound 65, 3-Hydroxy-1-(3-imidazol-1-yl-propyl)-4-isopropyl-5-phenyl-1,5-dihydro-pyrrol-2-one]",3.1 µM
11,"O=C(C1=C(O)C(=O)N(c2ccc3[nH]cnc3c2)C1c1ccc(CO)o1)c1cccs1 (centres unmarked) [Compound 369, 1-(1H-Benzoimidazol-5-yl)-3-hydroxy-5-(5-hydroxymethyl-furan-2-yl)-4-(thiophene-2-carbonyl)-1,5-dihydro-pyrrol-2-one]",1.57 µM
12,"Cc1ccc(C2C(C(C)C)=C(O)C(=O)N2CCCn2ccnc2)o1 (centres unmarked) [Compound 57, 3-Hydroxy-1-(3-imidazol-1-yl-propyl)-4-isopropyl-5-(5-methyl-furan-2-yl)-1,5-dihydro-pyrrol-2-one]",1.3 µM
13,"Cc1ccc(C2C(c3ccc(O)cc3)=C(O)C(=O)N2CCCn2ccnc2)o1 (centres unmarked) [Compound 154, 3-Hydroxy-4-(4-hydroxy-phenyl)-1-(3-imidazol-1-yl-propyl)-5-(5-methyl-furan-2-yl)-1,5-dihydro-pyrrol-2-one]",0.04 µM
14,"CCCCCC1=C(O)C(=O)N(CCCn2ccnc2)C1C(C)CC (centres unmarked) [Compound 186, 5-sec-Butyl-3-hydroxy-1-(3-imidazol-1-yl-propyl)-4-pentyl-1,5-dihydro-pyrrol-2-one]",0.4 µM
15,"O=C(C1=C(O)C(=O)N(c2ccc3[nH]cnc3c2)C1c1ccc(Cl)c(Cl)c1)C1CCCCC1 (centres unmarked) [Compound 372, 1-(1H-Benzoimidazol-5-yl)-4-cyclohexanecarbonyl-5-(3,4-dichloro-phenyl)-3-hydroxy-1,5-dihydro-pyrrol-2-one]",0.4 µM
16,"CC(C)C1=C(O)C(=O)N(CCCn2ccnc2)C1c1cccs1 (centres unmarked) [Compound 71, 3-Hydroxy-1-(3-imidazol-1-yl-propyl)-4-isopropyl-5-thiophen-2-yl-1,5-dihydro-pyrrol-2-one]",4 µM
17,"O=C1C(O)=C(c2ccccc2)C(c2ccc3cccc(O)c3n2)N1c1ccc2[nH]cnc2c1 (centres unmarked) [Compound 398, 1-(1H-Benzoimidazol-5-yl)-3-hydroxy-5-(8-hydroxy-quinolin-2-yl)-4-phenyl-1,5-dihydro-pyrrol-2-one]",0.04 µM
18,"CCC/C=C/C1C(CC)=C(O)C(=O)N1CCCn1ccnc1 (centres unmarked) [Compound 222, 4-Ethyl-3-hydroxy-1-(3-imidazol-1-yl-propyl)-5-(pent-1-enyl)-1,5-dihydro-pyrrol-2-one]",3.1 µM
19,"CC1=C(O)C(=O)N(c2ccc3[nH]cnc3c2)C1c1cccc(C)c1 (centres unmarked) [Compound 416, 1-(1H-Benzoimidazol-5-yl)-3-hydroxy-4-methyl-5-m-tolyl-1,5-dihydro-pyrrol-2-one]",9.94 µM
20,"CCC(C)C1C(F)=C(O)C(=O)N1CCCn1ccnc1 (centres unmarked) [Compound 1, 5-sec-Butyl-4-fluoro-3-hydroxy-1-(3-imidazol-1-yl-propyl)-1,5-dihydro-pyrrol-2-one]",3.1 µM

# More lines, now with the values ahead:
row,IC50,Structure (SMILES)
1,1.39 µM,"Cc1ccc2occ(C3C(C(C)C)=C(O)C(=O)N3c3ccc4[nH]cnc4c3)c(=O)c2c1 (centres unmarked) [Compound 331, 1-(1H-Benzoimidazol-5-yl)-3-hydroxy-4-isopropyl-5-(6-methyl-4-oxo-4H-chromen-3-yl)-1,5-dihydro-pyrrol-2-one]"
2,1.48 µM,"CC(C)C1=C(O)C(=O)N(c2ccc3[nH]cnc3c2)C1c1ccc(O)c(Br)c1 (centres unmarked) [Compound 377, 1-(1H-Benzoimidazol-5-yl)-5-(3-bromo-4-hydroxy-phenyl)-3-hydroxy-4-isopropyl-1,5-dihydro-pyrrol-2-one]"
3,3.1 µM,"CCCCCC1=C(O)C(=O)N(CCCn2ccnc2)C1c1c(O)ccc2ccccc12 (centres unmarked) [Compound 207, 3-Hydroxy-5-(2-hydroxy-naphthalen-1-yl)-1-(3-imidazol-1-yl-propyl)-4-pentyl-1,5-dihydro-pyrrol-2-one]"
4,0.04 µM,"Cc1ccc(C2C(c3c[nH]c4ccccc34)=C(O)C(=O)N2CCCn2ccnc2)cc1 (centres unmarked) [Compound 114, 3-Hydroxy-1-(3-imidazol-1-yl-propyl)-4-(1H-indol-3-yl)-5-p-tolyl-1,5-dihydro-pyrrol-2-one]"
5,2.2 µM,"Cc1ccc(C2C(c3cccc(O)c3)=C(O)C(=O)N2CCCn2ccnc2)cc1 (centres unmarked) [Compound 5, 3-Hydroxy-4-(3-hydroxy-phenyl)-1-(3-imidazol-1-yl-propyl)-5-p-tolyl-1,5-dihydro-pyrrol-2-one]"
6,0.4 µM,"CC1=C(O)C(=O)N(CCCn2ccnc2)C1c1c[nH]c2ccccc12 (centres unmarked) [Compound 39, 3-Hydroxy-1-(3-imidazol-1-yl-propyl)-5-(1H-indol-3-yl)-4-methyl-1,5-dihydro-pyrrol-2-one]"
7,7.87 µM,"Cc1[nH]c2ccccc2c1C1C(C(=O)C2CC2)=C(O)C(=O)N1c1ccc2[nH]cnc2c1 (centres unmarked) [Compound 298, 1-(1H-Benzoimidazol-5-yl)-4-cyclopropanecarbonyl-3-hydroxy-5-(2-methyl-1H-indol-3-yl)-1,5-dihydro-pyrrol-2-one]"
8,1.3 µM,"Cc1ccc(C2C(c3cccc(O)c3)=C(O)C(=O)N2CCCn2ccnc2)cc1C (centres unmarked) [Compound 15, 5-(3,4-Dimethyl-phenyl)-3-hydroxy-4-(3-hydroxy-phenyl)-1-(3-imidazol-1-yl-propyl)-1,5-dihydro-pyrrol-2-one]"
9,0.04 µM,"O=C1C(O)=C(c2c[nH]c3ccccc23)C(c2ccc3[nH]ccc3c2)N1CCCn1ccnc1 (centres unmarked) [Compound 120, 3-Hydroxy-1-(3-imidazol-1-yl-propyl)-5-(1H-indol-5-yl)-4-(1H-indol-3-yl)-1,5-dihydro-pyrrol-2-one]"
10,1.21 µM,"CC(=O)C1=C(O)C(=O)N(c2ccc3[nH]cnc3c2)C1c1cc[n+]([O-])cc1 (centres unmarked) [Compound 397, 4-Acetyl-1-(1H-benzoimidazol-5-yl)-3-hydroxy-5-(1-oxy-pyridin-4-yl)-1,5-dihydro-pyrrol-2-one]"
11,3.64 µM,"Cc1cccc(C2C(c3cccc(O)c3)=C(O)C(=O)N2c2ccc3[nH]cnc3c2)c1 (centres unmarked) [Compound 434, 1-(1H-Benzoimidazol-5-yl)-3-hydroxy-4-(3-hydroxy-phenyl)-5-m-tolyl-1,5-dihydro-pyrrol-2-one]"
12,6.16 µM,"CC(C)(C)C(=O)C1=C(O)C(=O)N(c2ccc3[nH]cnc3c2)C1 [Compound 465, 1-(1H-Benzoimidazol-5-yl)-4-(2,2-dimethyl-propionyl)-3-hydroxy-1,5-dihydro-pyrrol-2-one]"
13,1.39 µM,"CC1=C(O)C(=O)N(c2ccc3[nH]cnc3c2)C1c1ccc(C(=O)O)o1 (centres unmarked) [Compound 399, 5-[1-(1H-Benzoimidazol-5-yl)-4-hydroxy-3-methyl-5-oxo-2,5-dihydro-1H-pyrrol-2-yl]-furan-2-carboxylic acid]"
